Laboratory results: ChEMBL document CHEMBL1122357, “Alkylation of opioid receptor subtypes by alpha-chlornaltrexamine produces concurrent irreversible agonistic and irreversible antagonistic activities” (J Med Chem, 1983)

Experiments:
Assay type in all cases: functional
[1] = kappa antagonistic effect on beta-FNA treated GPI (IC50 ratio=IC50 after treatment/IC50 before treatment)
[2] = kappa antagonistic effect on beta-FNA and alpha-CNA treated GPI (IC50 ratio=IC50 after treatment/IC50 before treatment)
Cavia porcellus [3] = organism: Cavia porcellus; experiment: Agonistic effect on untreated guinea pig ileum preparations (GPI)
Cavia porcellus [4] = organism: Cavia porcellus; experiment: Agonistic effect on beta-FNA treated guinea pig ileum preparations (GPI)

Row | Compound | Ratio [1] | Ratio [2] | IC50 (Cavia porcellus [3]; Cavia porcellus, Ileum) [nM] | IC50 (Cavia porcellus [4]; Cavia porcellus, Ileum) [nM] | IC50 (Cavia porcellus [3]) [nM] | IC50 (Cavia porcellus [4]) [nM]
1 | CCOc1ccc2c(c1)C1(C)CCN(CC3CC3)C(C2=O)C1C (stereo unspecified) [ETHYLKETAZOCINE] | 1.21 | 10.1 | 0.72 | 0.69 | – | –
2 | Oc1ccc2c3c1O[C@H]1[C@@H](N(CCCl)CCCl)CCC4(O)C(C2)N(CC2CC2)CCC314 (stereo partly specified) | – | – | – | – | 5.5 | 2.4
